Reference: patent US10626112B2, “Heterocyclic sulfonamide derivative and medicine comprising same” (EA PHARMA CO., LTD., priority 2014, dated 2020)

Target: human TRPA1 (Homo sapiens (Human), UniProt O75762)
Assay: Measurement of TRPA1 antagonist activity (2): as (1), different lot of human TRPA1 expression plasmid
Format: cell-based
Details: 293T cells transfected with human TRPA1, allylisothiocyanate 20 μM stimulation, calcium fluorescence, read-out: hTRPA1 IC50
Experimental: Human embryonic kidney-derived 293T cells were cultured in Dulbecco's Modified Eagle Medium containing 10% fetal bovine serum, 10 unit penicillin, and 10 μg streptomycin, plated on a petri dish having a diameter of 10 cm at 3×10^6 cells, and cultured for 24 hr in a CO2 incubator. A reduced serum medium (manufactured by Invitrogen, trade name: OPTI-MEM, 600 μL), a gene transfer reagent (manufactured by Mirus Bio, trade name: Mirus TransIT-293, 18 μL), and human TRPA1 expression plasmid (6 μg) were mixed, the total amount of the mixture was added to the cells on the petri dish to allow for gene transfer. The cells were recovered about for 8 hr later, plated on a poly-D-lysine coated 384 well black/clear bottom plate at 12,000 cells/well, and cultured overnight.
Measurement of Intracellular Calcium Increase
The 384 well plate was recovered, and the medium was removed. A calcium-bonded fluorescent indicator (manufactured by Molecular Device, trade name: Calcium4 Assay Kit, 38 μL) dissolved in assay buffer (1×HBSS, 20 mM HEPES, pH 7.2) was added, and the cells were stained in a CO2 incubator for 1 hr. The cells were taken out at room temperature, stood for not less than 15 min, a test substance (10 μL) was added by a platereader FDSS7000 (Hamamatsu Photonics K.K.) equipped with a 384ch dispenser. After 10 min, allylisothiocyanate (12 μL) was further added at a final concentration of 20 μM, and changes in the relative fluorescence intensity after addition of allylisothiocyanate were measured for 5 min.
Test Substance Preparation
The test substance was dissolved in dimethyl sulfoxide and serially diluted with an assay buffer containing 0.1% bovine serum albumin (1×HBSS, 20 mM HEPES, pH 7.2) to a 4.8-fold concentration of the evaluation concentration. Allylisothiocyanate, which is a known TRPA1 activator, was dissolved in dimethyl sulfoxide to 100 mM, and further diluted 5-fold (100 μM) of the final concentration, like the test substance.
Calculation of Antagonist Activity
Under the test substance-free conditions, the maximum variation range of the fluorescence intensity before and after allylisothiocyanate stimulation was defined to be 100% activity rate, and the variation range before and after buffer stimulation was defined as 0% activity rate. The activity rate on addition of the test substance was determined, and the numerical value obtained by subtracting the activity rate from 100 was defined to be an inhibitory rate. IC50, which is the concentration of the test substance necessary for reaching the 50% inhibitory rate, was calculated from the sigmoid approximate curve by a spreadsheet software Excel-Fit.
Measurement of TRPA1 Antagonist Activity (2)
By a method similar to that in Experimental Example 1-1 except that the lot of human […] expression plasmid is different, the TRPA1 antagonist activity of the test substance was measured.

Chain of human TRPA1 (O75762 whole entry): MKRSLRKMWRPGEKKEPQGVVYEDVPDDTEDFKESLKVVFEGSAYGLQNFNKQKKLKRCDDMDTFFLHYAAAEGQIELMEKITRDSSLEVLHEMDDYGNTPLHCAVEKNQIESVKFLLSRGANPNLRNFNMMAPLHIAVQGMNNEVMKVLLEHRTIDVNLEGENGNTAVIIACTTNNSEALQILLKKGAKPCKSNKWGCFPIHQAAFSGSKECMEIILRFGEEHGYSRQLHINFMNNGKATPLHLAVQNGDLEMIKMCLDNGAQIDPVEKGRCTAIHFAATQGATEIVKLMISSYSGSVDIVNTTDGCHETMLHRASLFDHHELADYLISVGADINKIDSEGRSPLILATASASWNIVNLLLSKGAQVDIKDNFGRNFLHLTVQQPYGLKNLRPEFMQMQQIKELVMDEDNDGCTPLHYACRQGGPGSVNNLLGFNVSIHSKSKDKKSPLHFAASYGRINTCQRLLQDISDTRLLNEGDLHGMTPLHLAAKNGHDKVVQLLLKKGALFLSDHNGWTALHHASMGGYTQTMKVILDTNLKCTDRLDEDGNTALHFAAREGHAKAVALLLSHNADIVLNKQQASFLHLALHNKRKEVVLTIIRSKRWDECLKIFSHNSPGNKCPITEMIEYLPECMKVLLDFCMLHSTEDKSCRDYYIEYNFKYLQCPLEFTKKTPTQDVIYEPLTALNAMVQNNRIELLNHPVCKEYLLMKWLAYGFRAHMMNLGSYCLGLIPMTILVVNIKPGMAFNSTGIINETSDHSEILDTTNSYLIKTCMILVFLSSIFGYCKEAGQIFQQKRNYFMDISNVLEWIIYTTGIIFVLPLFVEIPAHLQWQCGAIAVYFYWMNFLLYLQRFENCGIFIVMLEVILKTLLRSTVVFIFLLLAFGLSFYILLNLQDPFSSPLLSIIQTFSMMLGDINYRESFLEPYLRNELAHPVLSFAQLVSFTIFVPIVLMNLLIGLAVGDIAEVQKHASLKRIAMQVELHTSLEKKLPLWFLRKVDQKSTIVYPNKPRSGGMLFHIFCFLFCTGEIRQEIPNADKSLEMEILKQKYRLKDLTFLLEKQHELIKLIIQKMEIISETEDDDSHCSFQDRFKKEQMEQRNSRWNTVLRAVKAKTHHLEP

O=C(CN(CC1CCNCC1)S(=O)(=O)c1cc2cc(F)ccc2o1)NCc1cc(-c2ccc(C(F)(F)F)cn2)ccn1 [Example 423, 2-[(5-fluorobenzofuran-2-yl)sulfonyl-(4-piperidylmethyl)amino]-N-[[4-[5-(trifluoromethyl)-2-pyridyl]-2-pyridyl]methyl]acetamide]
IC50: 33 nM

O=C(NCc1cc(-c2cnc(C(F)(F)F)nc2)ccn1)[C@@H]1CCN1S(=O)(=O)c1cc2cc(F)ccc2o1 [Example 389, (2S)-1-(5-fluorobenzofuran-2-yl)sulfonyl-N-[[4-[2-(trifluoromethyl)pyrimidin-5-yl]-2-pyridyl]methyl]azetidine-2-carboxamide]
IC50: 11 nM

CN(C)c1nc(CNC(=O)[C@@H]2CCCN2S(=O)(=O)c2cc3cnccc3o2)cc(-c2ccc(C(F)(F)F)cc2)n1 [Example 375, (2S)-N-[[2-(dimethylamino)-6-[4-(trifluoromethyl)phenyl]-pyrimidin-4-yl]methyl]-1-furo[3,2-c]pyridin-2-ylsulfonyl-pyrrolidine-2-carboxamide]
IC50: 13 nM

CN(C)c1nc(CNC(=O)[C@@H]2CCCN2S(=O)(=O)c2cc3ccccc3o2)cc(-c2ccc(C(F)(F)F)nc2)n1 [Example 371, (2S)-1-(benzofuran-2-ylsulfonyl)-N-[[2-(dimethylamino)-6-[6-(trifluoromethyl)-3-pyridyl]pyrimidin-4-yl]methyl]pyrrolidine-2-carboxamide]
IC50: 10 nM

CN(C)c1nc(CNC(=O)[C@@H]2CCCN2S(=O)(=O)c2cc3cc(F)ccc3o2)cc(-c2ccc(C(F)(F)F)cc2O)n1 [Example 397, (2S)-N-[[2-(dimethylamino)-6-[2-hydroxy-4-(trifluoromethyl)phenyl]-pyrimidin-4-yl]methyl]-1-(5-fluorobenzofuran-2-yl)sulfonyl-pyrrolidine-2-carboxamide]
IC50: 6.8 nM

Nc1nc(CNC(=O)[C@@H]2CCCN2S(=O)(=O)c2cc3cc(F)ccc3o2)cc(-c2ccc(C(F)(F)F)cc2)n1 [Example 382, (2S)-N-[[2-amino-6-[4-(trifluoromethyl)phenyl]-pyrimidin-4-yl]methyl]-1-(5-fluorobenzofuran-2-yl)sulfonyl-pyrrolidine-2-carboxamide]
IC50: 27 nM

C[C@@]1(C(=O)NCc2cc(-c3ccc(C(F)(F)F)cn3)ccn2)CCCN1S(=O)(=O)c1cc2cc(F)ccc2o1 [Example 341, (2S)-1-(5-fluorobenzofuran-2-yl)sulfonyl-2-methyl-N-[[4-[5-(trifluoromethyl)-2-pyridyl]-2-pyridyl]methyl]pyrrolidine-2-carboxamide]
IC50: 14 nM

CC(C)(C)OC(=O)c1cc(CNC(=O)[C@@H]2CCCN2S(=O)(=O)c2cc3ccccc3o2)cc(-c2ccc(C(F)(F)F)cc2)c1 [Example 338, tert-butyl 3-[[[(2S)-1-(benzofuran-2-ylsulfonyl)pyrrolidine-2-carbonyl]amino]methyl]-5-[4-(trifluoromethyl)phenyl]-benzoate]
IC50: 12 nM

C[C@H](NS(=O)(=O)c1cc2cc(F)ccc2o1)C(=O)NCc1cc(-c2ccc(C(F)(F)F)cc2)nc(N(C)C)n1 [Example 370, (2S)-N-[[2-(dimethylamino)-6-[4-(trifluoromethyl)-phenyl]pyrimidin-4-yl]methyl]-2-[(5-fluorobenzofuran-2-yl)sulfonylamino]propanamide]
IC50: 73 nM

O=C(CN(CC1CCNCC1)S(=O)(=O)c1cc2cc(F)ccc2o1)NCc1cc(-c2ccc(C(F)(F)F)cc2)ncn1 [Example 424, 2-[(5-fluorobenzofuran-2-yl)sulfonyl-(4-piperidylmethyl)amino]-N-[[6-[4-(trifluoromethyl)phenyl]pyrimidin-4-yl]methyl]acetamide]
IC50: 21 nM

O=C(NCc1cccc(-c2cnc(C(F)(F)F)cn2)c1)[C@@H]1CCN1S(=O)(=O)c1cc2cc(F)ccc2o1 [Example 392, (2S)-1-(5-fluorobenzofuran-2-yl)sulfonyl-N-[[3-[5-(trifluoromethyl)pyrazin-2-yl]phenyl]methyl]azetidine-2-carboxamide]
IC50: 4.6 nM

C=CCN([C@@H](C)C(=O)NCc1cc(-c2ccc(C(F)(F)F)cn2)ccn1)S(=O)(=O)c1cc2cc(F)ccc2o1 [Example 417, (2S)-2-[allyl-(5-fluorobenzofuran-2-yl)sulfonyl-amino]-N-[[4-[5-(trifluoromethyl)-2-pyridyl]-2-pyridyl]methyl]propanamide]
IC50: 14 nM

C[C@@H](C(=O)NCc1cc(-c2ccc(C(F)(F)F)cn2)ccn1)N(C)S(=O)(=O)c1cc2cc(F)ccc2o1 [Example 426, (2S)-2-[(5-fluorobenzofuran-2-yl)sulfonyl-methyl-amino]-N-[[4-[5-(trifluoromethyl)-2-pyridyl]-2-pyridyl]methyl]propanamide]
IC50: 7.7 nM

O=C(NCc1cc(-c2ccc(C(F)(F)F)cn2)ccn1)[C@@H]1CCN1S(=O)(=O)c1cc2ccccc2o1 [Example 385, (2S)-1-(benzofuran-2-ylsulfonyl)-N-[[4-[5-(trifluoromethyl)-2-pyridyl]-2-pyridyl]methyl]azetidine-2-carboxamide]
IC50: 13 nM

C[C@H](NS(=O)(=O)c1cc2cnccc2o1)C(=O)NCc1cc(-c2ccc(C(F)(F)F)cc2)nc(N(C)C)n1 [Example 369, (2S)-N-[[2-(dimethylamino)-6-[4-(trifluoromethyl)-phenyl]pyrimidin-4-yl]methyl]-2-(furo[3,2-c]pyridin-2-ylsulfonylamino)propanamide]
IC50: 44 nM

O=C(CN(Cc1ccccn1)S(=O)(=O)c1cc2cc(F)ccc2o1)NCc1cc(-c2ccc(C(F)(F)F)cc2)ncn1 [Example 353, 2-[(5-fluorobenzofuran-2-yl)sulfonyl-(2-pyridylmethyl)-amino]-N-[[6-[4-(trifluoromethyl)-phenyl]pyrimidin-4-yl]methyl]acetamide]
IC50: 300 nM

O=C(NCc1ccnc(-c2ccc(C(F)(F)F)cc2O)c1)[C@@H]1CCN1S(=O)(=O)c1cc2ccccc2o1 [Example 411, (2S)-1-(benzofuran-2-ylsulfonyl)-N-[[2-[2-hydroxy-4-(trifluoromethyl)phenyl]-4-pyridyl]methyl]azetidine-2-carboxamide]
IC50: 25 nM

CC(C)N(CC(=O)NCc1ccc(O)c(-c2ccc(C(F)(F)F)cn2)c1)S(=O)(=O)c1cc2cnccc2o1 [Example 374, 2-[furo[3,2-c]pyridin-2-ylsulfonyl(isopropyl)amino]-N-[[4-hydroxy-3-[5-(trifluoromethyl)-2-pyridyl]-phenyl]methyl]acetamide]
IC50: 15 nM

C[C@H](NS(=O)(=O)c1cc2cc(F)ccc2o1)C(=O)NCc1cc(-c2ccc(C(F)(F)F)cc2O)nc(N(C)C)n1 [Example 377, (2S)-N-[[2-(dimethylamino)-6-[2-hydroxy-4-(trifluoromethyl)phenyl]-pyrimidin-4-yl]methyl]-2-[(5-fluorobenzofuran-2-yl)sulfonylamino]propanamide]
IC50: 110 nM

C[C@H](NS(=O)(=O)c1cc2cnccc2o1)C(=O)NCc1cc(-c2ccc(C(F)(F)F)cc2O)ncn1 [Example 414, (2S)-2-(furo[3,2-c]pyridin-2-ylsulfonylamino)-N-[[6-[2-hydroxy-4-(trifluoromethyl)phenyl]pyrimidin-4-yl]methyl]propanamide]
IC50: 34 nM

O=C(NCc1cc(-c2ccc(C(F)(F)F)cn2)ccn1)C(CF)NS(=O)(=O)c1cc2cc(F)ccc2o1 (stereo not drawn) [Example 427, 3-fluoro-2-[(5-fluorobenzofuran-2-yl)sulfonylamino]-N-[[4-[5-(trifluoromethyl)-2-pyridyl]-2-pyridyl]methyl]propanamide]
IC50: 170 nM
